Key:
[1] = tested on: Plutella xylostella; experiment: Insecticidal test against Plutella xylostella; conditions: 500 ppm drug solution, Chinese cabbage seedlings with eggs immersed about 30 sec, six days after immersion, 25° C.
Text: Insecticidal Test Against Plutella xylostella
Six days after the immersion in the drug solution, the number of surviving insects was examined. […] In triplicate using 10 per plot.

[2] = tested on: Laodelphax striatellus; experiment: Insecticidal test against Laodelphax striatellus; conditions: 500 ppm drug solution, rice seedlings immersed 30 seconds, three-instar insects, eight days after inoculation
[3] = tested on: Frankliniella occidentalis; experiment: Insecticidal test against Frankliniella occidentalis; conditions: 500 ppm drug solution sprayed on hatched larvae on Phaseolus vulgaris leaf pieces, four days after treatment
Text: Insecticidal Test Against Frankliniella occidentalis
Female adults of Frankliniella occidentalis were inoculated onto Phaseolus vulgaris leaf pieces, and after allowing them to lay eggs for one day, the female adults were removed. […] Four days after the treatment, the number of surviving larvae of this species larvae was examined. […] In duplicate.

[4] = tested on: Dirofilaria immitis; experiment: Influence evaluation test on the growth of Dirofilaria immitis; conditions: 168 h, read-out: development inhibition rate from the L3 stage larva to the L4-stage larva

Compound | corrected mortality, rating of assessment [1] | corrected mortality, rating of assessment [2] | corrected mortality, rating of assessment [3] | inhibition at 10 µM [4] [%]
CN1C(=O)C(C(=O)Nc2ncc(F)cn2)=C(O)CC1c1ccc(C(F)(F)F)cc1 (centres unmarked) [1-15] | D or higher |  |  | 
CN1C(=O)C(C(=O)Nc2ccc(F)cn2)=C(O)CC1c1ccc(C(F)(F)F)cc1 (centres unmarked) [1-10] | D or higher |  |  | 
C#CCN1C(=O)C(C(=O)Nc2cc(C)on2)=C(O)CC1c1ccc(C(F)(F)F)nc1 (centres unmarked) [1-33] | D or higher | D or higher | D or higher | 
C[S+]([O-])C1=C(C(=O)Nc2ccc(F)cc2)C(=O)NC(c2ccc(C(F)(F)F)nc2)C1 (centres unmarked) [compound No. 1-30, N-(4-fluorophenyl)-4-(methylsulfinyl)-6-oxo-6′-(trifluoromethyl)-1,2,3,6-tetrahydro-[2,3′-bipyridine]-5-carboxamide] | D or higher | D or higher | D or higher | 
O=C1NCC(c2ccccc2C(F)(F)F)C(O)=C1C(=O)Nc1ccccc1F (centres unmarked) [3-3] | D or higher |  |  | 
CCC1(c2ccc(C(F)(F)F)cc2)CN(C)C(=O)C(C(=O)Nc2ccc(S(C)(=O)=O)cc2)=C1O (centres unmarked) [3-35] | D or higher | D or higher |  | 
C#CCN1C(=O)C(C(=O)Nc2ccc(S(C)(=O)=O)cc2)=C(O)CC1c1ccc(C(F)(F)F)nc1 (centres unmarked) [1-43] |  | D or higher |  | 
C#CCN1C(=O)C(C(=O)Nc2ccc(SC)cc2)=C(O)CC1c1ccc(C(F)(F)F)nc1 (centres unmarked) [1-41] |  | D or higher |  | 
CN1C(=O)C(C(=O)Nc2ccc(Cl)cc2)=C(O)CC1c1ccc(C(F)(F)F)cc1 (centres unmarked) [1-4] | D or higher | D or higher |  | 
C#CCN1C(=O)C(C(=O)Nc2ccn(C)n2)=C(O)CC1c1ccc(C(F)(F)F)nc1 (centres unmarked) [1-34] | D or higher | D or higher |  | 
CCC1(c2ccc(C(F)(F)F)cc2)CN(C)C(=O)C(C(=O)Nc2ccc(C3CC3)cc2C)=C1O (centres unmarked) [3-38] | D or higher |  |  | 
CN1C(=O)C(C(=S)Nc2ccc(C(F)(F)F)cc2)=C(O)CC1c1ccc(C(F)(F)F)cc1 (centres unmarked) [compound No. 1-9, 4-hydroxy-1-methyl-2-oxo-N, 6-bis(4-(trifluoromethyl)phenyl)-1,2,5,6-tetrahydropyridine-3-carbothioamide] | D or higher |  | D or higher | 
C#CCN1C(=O)C(C(=O)Nc2ccc(F)cn2)=C(O)CC1c1ccc(SC)cc1 (centres unmarked) [1-37] | D or higher | D or higher |  | 
C#CCN1C(=O)C(C(=O)Nc2ccc([S+](C)[O-])cc2)=C(O)CC1c1ccc(C(F)(F)F)nc1 (centres unmarked) [1-42] |  | D or higher |  | 
CCC1(c2ccc(C(F)(F)F)cc2)CN(C)C(=O)C(C(=O)Nc2cnc3ccccc3c2)=C1O (centres unmarked) [3-29] | D or higher |  |  | 
CN1C(=O)C(C(=S)Nc2ccc(F)cc2)=C(O)CC1c1ccc(C(F)(F)F)cc1 (centres unmarked) [1-8] | D or higher |  | D or higher | 
C#CCN1C(=O)C(C(=O)Nc2ccc(F)cn2)=C(O)CC1c1ccc([S+](C)[O-])cc1 (centres unmarked) [1-38] | D or higher | D or higher |  | 
CCC1(c2ccc(C(F)(F)F)cc2)CN(C)C(=O)C(C(=O)Nc2ncc(F)cn2)=C1O (centres unmarked) [3-26] |  | D or higher |  | 
CN1C(=O)C(C(=O)Nc2ccc(C(F)(F)F)cc2)=C(O)CC1c1ccc(C(F)(F)F)cc1 (centres unmarked) [compound No. 1-1, 4-hydroxy-1-methyl-2-oxo-N, 6-bis(4-(trifluoromethyl)phenyl)-1,2,5,6-tetrahydropyridine-3-carboxamide] | D or higher |  |  | 
CN1C(=O)C(C(=O)Nc2ccc(F)nc2)=C(O)CC1c1ccc(C(F)(F)F)cc1 (centres unmarked) [1-14] | D or higher | D or higher | D or higher | 
CN1C(=O)C(C(=O)Nc2ccc(F)cc2)=C(O)CC1c1ccc(C(F)(F)F)nc1 (centres unmarked) [1-12] | D or higher | D or higher |  | 
O=C(Nc1ccc(F)cc1)C1=C(S)CC(c2ccc(C(F)(F)F)nc2)NC1=O (centres unmarked) [compound No. 1-28, N-(4-fluorophenyl)-4-mercapto-6-oxo-6′-(trifluoromethyl)-1,2,3,6-tetrahydro-[2,3′-bipyridine]-5-carboxamide] | D or higher | D or higher | D or higher | 
CCC1(c2ccc(C(F)(F)F)cc2)CN(C)C(=O)C(C(=O)Nc2ccc(C)cc2)=C1O (centres unmarked) [3-34] | D or higher |  |  | 

Compound | corrected mortality, rating of assessment [1] | corrected mortality, rating of assessment [2] | corrected mortality, rating of assessment [3] | inhibition at 10 µM [4] [%]
C#CCNC(=O)C1=C(O)CC(c2ccc(C(F)(F)F)cc2)N(C)C1=O (centres unmarked) [1-27] | D or higher |  |  | 
CN1C(=O)C(C(=O)Nc2ccc(OC(F)(F)F)cc2)=C(O)CC1c1ccc(C(F)(F)F)cc1 (centres unmarked) [compound No. 1-2] | D or higher |  |  | 
C#CCN1C(=O)C(C(=O)Nc2ccc(F)cc2)=C(O)CC1c1ccc(SC)cc1 (centres unmarked) [1-44] | D or higher |  |  | 
O=C(Nc1ccc(F)cc1)C1=C(O)CC(c2ccc(C(F)(F)F)cc2)N(Cc2ccccc2)C1=O (centres unmarked) [1-5] | D or higher |  | D or higher | 
CCC1(c2ccc(C(F)(F)F)cc2)CNC(=O)C(C(=O)Nc2ccc(F)cc2)=C1O (centres unmarked) [3-24] | D or higher | D or higher |  | 
C#CCN1C(=O)C(C(=O)Nc2ccc(F)cn2)=C(O)CC1c1ccc(Cl)nc1 (centres unmarked) [1-36] | D or higher | D or higher | D or higher | 
CCCN1C(=O)C(C(=O)Nc2ccc(F)cc2)=C(O)CC1c1ccc(C(F)(F)F)nc1 (centres unmarked) [1-32] | D or higher | D or higher |  | 
CN1C(=O)C(C(=O)Nc2ccc(NS(C)(=O)=O)cc2)=C(O)CC1c1ccc(C(F)(F)F)nc1 (centres unmarked) [1-60] | D or higher |  |  | 
CN1CC(C)(c2ccc(C(F)(F)F)cc2)C(O)=C(C(=S)Nc2ccc(F)cc2)C1=O (centres unmarked) [compound No. 3-14, N-(4-fluorophenyl)-4-hydroxy-1,5-dimethyl-2-oxo-5-(4-(trifluoromethyl)phenyl)-1,2,5,6-tetrahydropyridine-3-carbothioamide] |  |  |  | ≥ 50
CCC1(c2ccc(C(F)(F)F)cc2)CN(C)C(=O)C(C(=O)Nc2ccc(OC)cc2)=C1O (centres unmarked) [3-31] | D or higher | D or higher |  | 
C#CCN1C(=O)C(C(=O)Nc2ccc(F)cn2)=C(O)CC1c1ccc(S(C)(=O)=O)cc1 (centres unmarked) [1-39] | D or higher | D or higher |  | 
CN1CC(C)(c2ccc(C(F)(F)F)cc2)C(O)=C(C(=O)Nc2ccc(F)cc2)C1=O (centres unmarked) [3-11] | D or higher |  |  | 
CSC1=C(C(=O)Nc2ccc(F)cc2)C(=O)NC(c2ccc(C(F)(F)F)nc2)C1 (centres unmarked) [compound No. 1-29, N-(4-fluorophenyl)-4-(methylthio)-6-oxo-6′-(trifluoromethyl)-1,2,3,6-tetrahydro-[2,3′-bipyridine]-5-carboxamide] | D or higher |  |  | 
CCC1(c2ccc(C(F)(F)F)cc2)CN(C)C(=O)C(C(=S)Nc2ccc(F)cn2)=C1O (centres unmarked) [3-23] | D or higher | D or higher |  | 
O=C1NCC(c2ccc(Cl)cc2)C(O)=C1C(=O)Nc1ccc(F)cc1 (centres unmarked) [3-10] | D or higher |  |  | 
CN1CC(C)(c2ccc(C(F)(F)F)cc2)C(O)=C(C(=O)Nc2ccc(C(F)(F)F)cc2)C1=O (centres unmarked) [3-12] | D or higher |  |  | 
CN1C(=O)C(C(=S)Nc2ccc(F)cn2)=C(O)CC1c1ccc(C(F)(F)F)cc1 (centres unmarked) [1-11] | D or higher |  |  | 
CN1C(=O)C(C(=O)Nc2ccc(F)cn2)=C(O)CC1c1ccc(C(F)(F)F)nc1 (centres unmarked) [1-13] | D or higher | D or higher |  | 
CN1C(=O)C(C(=O)Nc2ccc(SC(F)(F)F)cc2)=C(O)CC1c1ccc(C(F)(F)F)nc1 (centres unmarked) [1-49] | D or higher |  |  | 
CCCN1C(=O)C(C(=O)Nc2ccc(F)cn2)=C(O)CC1c1ccc(C(F)(F)F)nc1 (centres unmarked) [1-31] | D or higher | D or higher | D or higher | 
C#CCN1C(=O)C(C(=O)Nc2ccnc(F)c2)=C(O)CC1c1ccc(C(F)(F)F)nc1 (centres unmarked) [1-35] | D or higher | D or higher |  | 
CN1C(=O)C(C(=O)NCc2ccc(F)cc2)=C(O)CC1c1ccc(C(F)(F)F)cc1 (centres unmarked) [compound No. 1-3] | D or higher |  |  | 
CCC1(c2ccc(C(F)(F)F)cc2)CN(C)C(=O)C(C(=O)NN2CCOCC2)=C1O (centres unmarked) [3-27] |  | D or higher |  | 

Source: US20250066303A1, “ARYL TETRAHYDROPYRIDINE DERIVATIVE OR SALT THEREOF, PEST CONTROL AGENT CONTAINING SAME, AND METHOD FOR USE THEREOF” (NIHON NOHYAKU CO., LTD., priority 2021, published 2025)
